We go through 30 compounds from ChEMBL document CHEMBL1158080, “Dehydrozingerone, chalcone, and isoeugenol analogues as in vitro anticancer agents” (J Nat Prod, 2006).

Common to all, as to type: functional, cell-based
Assay [1] concerns KB. The assay is described as follows: Cytotoxicity against human KB cells after 2 days by sulforhodamine B assay. The following applies: 48 h.
For assay [2], the system named is KB. The assay is described as follows: Cytotoxicity against multidrug-resistant human KB-VCR cells after 2 days by sulforhodamine B assay. Conditions: 48 h. (In general: In SRB staining, fixed cells bind dye roughly in proportion to their protein.)
A further assay deals with A549. The assay can be described thus: Cytotoxicity against human A549 cells after 2 days by sulforhodamine B assay. The following applies: A549, 48 h.

≈ marks a conversion by molar mass, not a printed value. Where only a bound is given, the exact number is not on record here.

For orientation: IC50 means the concentration at which inhibition is half-maximal. Low readings indicate greater potency in that assay, high ones weaker potency in that assay. With `COc1ccc(/C=C/C(C)=O)cc1OC`, the IC50 in the assay with KB [1] worked out at 8.6 µg/mL (≈ 41.7 µM); with KB [2], 7.8 µg/mL (≈ 37.8 µM); in the assay with A549, 8 µg/mL (≈ 38.8 µM).
Take `COc1ccc(/C=C/C(C)=O)cc1O`: the IC50 is 10 µg/mL (≈ 52 µM) in the assay with KB [1], 8.2 µg/mL (≈ 42.7 µM) with KB [2] and above 10 µg/mL in the assay on A549.
For the compound `CC(=O)/C=C/c1cccc(F)c1O`, the IC50 in the assay with KB [1] was 2.1 µg/mL (≈ 11.7 µM); with KB [2], 3 µg/mL (≈ 16.7 µM); with A549 it was 3 µg/mL (≈ 16.7 µM).
In the case of `COc1ccc(/C=C/C(=O)c2ccccc2)cc1O`, the IC50 in the assay on KB [1] is 1 µg/mL (≈ 3.93 µM); in the assay on KB [2], 1 µg/mL (≈ 3.93 µM); with A549 it was 3.5 µg/mL (≈ 13.8 µM).
Take `CCOc1cccc(/C=C/C(C)=O)c1O`: the IC50 in the assay on KB [1] was found to be 2 µg/mL (≈ 9.7 µM); in the assay with KB [2] it was 1.9 µg/mL (≈ 9.21 µM); with A549 it was 2.3 µg/mL (≈ 11.2 µM).
`COc1ccc(/C=C/C(C)=O)c(O)c1`: the results for the IC50 in the assay with KB [1], in the assay on KB [2] and with A549 were 3.8 µg/mL (≈ 19.8 µM), 4 µg/mL (≈ 20.8 µM) and 3.5 µg/mL (≈ 18.2 µM), respectively.
Turning to `COc1cccc(/C=C/C(=O)c2ccccc2)c1O`, the IC50 came out at 2.4 µg/mL (≈ 9.44 µM) with KB [1], 1.3 µg/mL (≈ 5.11 µM) with KB [2] and 0.6 µg/mL (≈ 2.36 µM) in the assay with A549.
For `COc1ccc(/C=C/C(C)=O)cc1F`, the IC50 in the assay with KB [1] came to 4.3 µg/mL (≈ 22.1 µM); in the assay with KB [2], 5 µg/mL (≈ 25.7 µM); in the assay with A549 it was 5.5 µg/mL (≈ 28.3 µM).
Take `C=CCOc1ccc(/C=C/C)cc1OC`: the IC50 with KB [1] and in the assay with KB [2] was above 10 µg/mL each time.
In the case of `C/C=C/c1ccc(OCC=C(C)C)c(OC)c1`, the IC50 in the assay with KB [1] and with KB [2] was above 10 µg/mL throughout.
As to `C=CCOc1ccc(/C=C/C(C)=O)cc1OC`, the IC50 in the assay with KB [1] worked out at 6.8 µg/mL (≈ 29.3 µM); in the assay with KB [2], 5 µg/mL (≈ 21.5 µM); in the assay with A549, 5.8 µg/mL (≈ 25 µM).
For `C/C=C/c1ccc(OCCC(C)C)c(OC)c1`, the IC50 in the assay with KB [1] and with KB [2] was above 10 µg/mL in each case.
Regarding `C/C=C/c1ccc(OCCC)c(OC)c1`, the IC50 in the assay with KB [1] and in the assay on KB [2] was above 10 µg/mL in each case.
`C/C=C/COc1ccc(/C=C/C)cc1OC`: the IC50 with KB [1] and with KB [2] was above 10 µg/mL in each case.
Turning to `COc1cc(/C=C/C(C)=O)ccc1OCC=C(C)C`, the values for the IC50 in the assay on KB [1], in the assay on KB [2] and in the assay with A549 were 5.7 µg/mL (≈ 21.9 µM), 3.5 µg/mL (≈ 13.4 µM) and 3.8 µg/mL (≈ 14.6 µM), respectively.
In the case of `C/C=C/COc1ccc(/C=C/C(C)=O)cc1OC`, the IC50 in the assay with KB [1] came to 4.8 µg/mL (≈ 19.5 µM); in the assay on KB [2] it was 3.4 µg/mL (≈ 13.8 µM); in the assay on A549, 6.8 µg/mL (≈ 27.6 µM).
Take `COc1cc(/C=C/C(C)=O)ccc1OC/C=C(\C)CCC=C(C)C`: the figures for the IC50 in the assay on KB [1], with KB [2] and in the assay on A549 were 2.2 µg/mL (≈ 6.7 µM), 3.3 µg/mL (≈ 10 µM) and 3.4 µg/mL (≈ 10.4 µM), respectively.
In the same order, the values of `CCOc1ccc(/C=C/C(C)=O)cc1OC` are 5.5 µg/mL (≈ 25 µM), 8 µg/mL (≈ 36.3 µM) and above 10 µg/mL.
In the case of `CCOc1cc(/C=C/C(C)=O)ccc1O`, the IC50 in the assay with KB [1] is 7.7 µg/mL (≈ 37.3 µM); in the assay on KB [2], 7.8 µg/mL (≈ 37.8 µM); in the assay on A549, 8.5 µg/mL (≈ 41.2 µM).
As for `COc1cc(/C=C/C(=O)c2ccccc2)ccc1O`, the figures for the IC50 with KB [1], in the assay with KB [2] and in the assay with A549 were 3.5 µg/mL (≈ 13.8 µM), 1.9 µg/mL (≈ 7.47 µM) and 2.3 µg/mL (≈ 9.04 µM), respectively.
Regarding `CCCOc1ccc(/C=C/C(C)=O)cc1OC`, the IC50 with KB [1] turned out to be 6.5 µg/mL (≈ 27.7 µM); in the assay on KB [2] it was 4.2 µg/mL (≈ 17.9 µM); with A549, 5.8 µg/mL (≈ 24.8 µM).
Turning to `COc1cc(/C=C/C(C)=O)ccc1OCCC(C)C`, the IC50 amounted to 3.6 µg/mL (≈ 13.7 µM) in the assay on KB [1], 3.2 µg/mL (≈ 12.2 µM) in the assay with KB [2] and 7.2 µg/mL (≈ 27.4 µM) with A549.
As for `COc1ccc(/C=C/C(=O)c2ccccc2)c(O)c1`, the IC50 in the assay with KB [1] worked out at 2 µg/mL (≈ 7.87 µM); in the assay with KB [2], 2 µg/mL (≈ 7.87 µM); in the assay on A549, 3.8 µg/mL (≈ 14.9 µM).
As for `COc1cc(/C=C/C(C)=O)ccc1OC/C=C(\C)CC/C=C(\C)CCC=C(C)C`, the IC50 in the assay with KB [1] was 6.5 µg/mL (≈ 16.4 µM); with KB [2], 7.4 µg/mL (≈ 18.7 µM); in the assay with A549, 7.4 µg/mL (≈ 18.7 µM).
With `C/C=C/c1ccc(OC/C=C(\C)CC/C=C(\C)CCC=C(C)C)c(OC)c1`, the IC50 with KB [1] and in the assay on KB [2] was above 10 µg/mL throughout.
As to `COc1cccc(/C=C/C(C)=O)c1O`, the IC50 was 3.8 µg/mL (≈ 19.8 µM) with KB [1], 2 µg/mL (≈ 10.4 µM) in the assay with KB [2] and 2.5 µg/mL (≈ 13 µM) in the assay on A549.
The like results for `COc1cc(/C=C/C(=O)CC(=O)/C=C/c2ccc(O)c(OC)c2)ccc1O` [CURCUMIN] were, in that order, 5.5 µg/mL (≈ 14.9 µM), 3.1 µg/mL (≈ 8.42 µM) and 5.2 µg/mL (≈ 14.1 µM).
On to `COc1cc(/C=C/C(C)=O)ccc1O` [DEHYDROZINGERONE], for which the IC50 with KB [1], with KB [2] and in the assay with A549 was above 10 µg/mL throughout.
Regarding `COc1cccc2c1C(=O)c1c(O)c3c(c(O)c1C2=O)C[C@@](O)(C(=O)CO)C[C@@H]3O[C@H]1C[C@H](N)[C@H](O)[C@H](C)O1` [DOXORUBICIN], the IC50 stood at 0.1 µg/mL (≈ 0.184 µM) in the assay with KB [1], 2.7 µg/mL (≈ 4.97 µM) with KB [2] and 0.1 µg/mL (≈ 0.184 µM) in the assay on A549.
With `C/C=C/c1ccc(OC)c(OC)c1` [METHYLISOEUGENOL], the IC50 in the assay with KB [1] and with KB [2] was above 10 µg/mL in each case.
